Results taken from PMC3961306, “Comparison of the Cancer Gene Targeting and Biochemical Selectivities of All Targeted Kinase Inhibitors Approved for Clinical Use” (PLoS ONE, 2014).
Read-outs that look alike come from different tables or passages of the source.

Experiments:
Test in all cases: Kinase profiling in a biochemical assay panel (mobility shift assays and ELISA), %-inhibition at 1 μM; selectivity entropy
[1] = system: panel of more than 300 wild-type and mutant kinases (313 kinase panel)
[2] = molecular target: panel of more than 300 wild-type and mutant kinases (313 kinase panel) (Homo sapiens, UniProt P05771)
[3] = molecular target: panel of more than 300 wild-type and mutant kinases (313 kinase panel) (Homo sapiens, UniProt Q15349)
[4] = molecular target: T1, panel of more than 300 wild-type and mutant kinases (313 kinase panel) (Homo sapiens, UniProt Q13976)
T1 sequence (Q13976 1-671): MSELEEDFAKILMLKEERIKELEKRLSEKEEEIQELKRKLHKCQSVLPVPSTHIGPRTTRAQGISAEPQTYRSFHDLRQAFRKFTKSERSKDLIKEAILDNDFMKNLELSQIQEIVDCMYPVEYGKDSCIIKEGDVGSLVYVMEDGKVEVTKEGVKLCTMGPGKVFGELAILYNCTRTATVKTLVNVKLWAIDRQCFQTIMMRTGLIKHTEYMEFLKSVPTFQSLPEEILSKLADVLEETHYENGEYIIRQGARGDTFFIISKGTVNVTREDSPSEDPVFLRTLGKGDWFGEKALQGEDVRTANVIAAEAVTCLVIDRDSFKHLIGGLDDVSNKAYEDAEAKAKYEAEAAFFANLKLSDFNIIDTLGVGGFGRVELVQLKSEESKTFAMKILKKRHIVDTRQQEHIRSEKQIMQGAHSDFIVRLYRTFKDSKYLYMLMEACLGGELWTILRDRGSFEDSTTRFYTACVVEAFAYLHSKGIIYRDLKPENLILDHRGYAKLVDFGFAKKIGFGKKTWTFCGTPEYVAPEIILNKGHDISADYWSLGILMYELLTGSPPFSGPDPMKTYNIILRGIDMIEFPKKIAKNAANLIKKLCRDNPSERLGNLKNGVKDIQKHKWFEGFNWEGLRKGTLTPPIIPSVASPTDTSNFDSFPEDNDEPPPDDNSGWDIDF

[5] = molecular target: panel of more than 300 wild-type and mutant kinases (313 kinase panel) (Homo sapiens, UniProt Q02779)
[6] = molecular target: T2, panel of more than 300 wild-type and mutant kinases (313 kinase panel) (Homo sapiens, UniProt P54762)
T2 sequence (P54762 18-984): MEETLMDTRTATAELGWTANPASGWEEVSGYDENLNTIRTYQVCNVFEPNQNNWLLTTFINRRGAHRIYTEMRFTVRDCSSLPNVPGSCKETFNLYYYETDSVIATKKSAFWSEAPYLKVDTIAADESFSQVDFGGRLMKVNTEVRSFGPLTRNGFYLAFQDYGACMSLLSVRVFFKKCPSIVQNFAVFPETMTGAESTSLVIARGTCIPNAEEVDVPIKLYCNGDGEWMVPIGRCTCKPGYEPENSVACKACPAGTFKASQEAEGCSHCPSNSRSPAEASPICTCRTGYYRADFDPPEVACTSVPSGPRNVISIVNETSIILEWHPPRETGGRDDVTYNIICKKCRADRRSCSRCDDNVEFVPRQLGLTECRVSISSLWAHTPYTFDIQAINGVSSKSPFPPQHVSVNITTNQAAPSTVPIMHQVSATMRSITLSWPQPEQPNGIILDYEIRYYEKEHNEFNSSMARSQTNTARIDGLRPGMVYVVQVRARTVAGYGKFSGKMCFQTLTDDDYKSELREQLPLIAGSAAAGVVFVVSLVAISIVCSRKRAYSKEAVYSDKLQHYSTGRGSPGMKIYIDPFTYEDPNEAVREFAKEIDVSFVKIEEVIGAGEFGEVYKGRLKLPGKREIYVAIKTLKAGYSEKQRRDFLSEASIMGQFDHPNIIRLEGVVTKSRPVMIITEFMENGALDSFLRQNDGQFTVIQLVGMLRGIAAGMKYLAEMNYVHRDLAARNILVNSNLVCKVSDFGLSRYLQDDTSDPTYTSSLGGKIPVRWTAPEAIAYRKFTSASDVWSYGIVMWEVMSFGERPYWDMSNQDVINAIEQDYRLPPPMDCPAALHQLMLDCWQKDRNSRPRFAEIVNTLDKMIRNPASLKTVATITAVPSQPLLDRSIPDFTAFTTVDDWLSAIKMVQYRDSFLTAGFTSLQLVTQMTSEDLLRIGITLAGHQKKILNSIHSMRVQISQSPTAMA

[7] = kinase EGFR(d746-750), compound at 1 μM
[8] = kinase EGFR(d746-750/T790M), compound at 1 μM
[9] = kinase EML4-ALK, compound at 1 μM

panel of more than 300 wild-type and mutant kinases (313 kinase panel) (Homo sapiens, UniProt Q02779), sequence (Q02779 whole entry, change not shown): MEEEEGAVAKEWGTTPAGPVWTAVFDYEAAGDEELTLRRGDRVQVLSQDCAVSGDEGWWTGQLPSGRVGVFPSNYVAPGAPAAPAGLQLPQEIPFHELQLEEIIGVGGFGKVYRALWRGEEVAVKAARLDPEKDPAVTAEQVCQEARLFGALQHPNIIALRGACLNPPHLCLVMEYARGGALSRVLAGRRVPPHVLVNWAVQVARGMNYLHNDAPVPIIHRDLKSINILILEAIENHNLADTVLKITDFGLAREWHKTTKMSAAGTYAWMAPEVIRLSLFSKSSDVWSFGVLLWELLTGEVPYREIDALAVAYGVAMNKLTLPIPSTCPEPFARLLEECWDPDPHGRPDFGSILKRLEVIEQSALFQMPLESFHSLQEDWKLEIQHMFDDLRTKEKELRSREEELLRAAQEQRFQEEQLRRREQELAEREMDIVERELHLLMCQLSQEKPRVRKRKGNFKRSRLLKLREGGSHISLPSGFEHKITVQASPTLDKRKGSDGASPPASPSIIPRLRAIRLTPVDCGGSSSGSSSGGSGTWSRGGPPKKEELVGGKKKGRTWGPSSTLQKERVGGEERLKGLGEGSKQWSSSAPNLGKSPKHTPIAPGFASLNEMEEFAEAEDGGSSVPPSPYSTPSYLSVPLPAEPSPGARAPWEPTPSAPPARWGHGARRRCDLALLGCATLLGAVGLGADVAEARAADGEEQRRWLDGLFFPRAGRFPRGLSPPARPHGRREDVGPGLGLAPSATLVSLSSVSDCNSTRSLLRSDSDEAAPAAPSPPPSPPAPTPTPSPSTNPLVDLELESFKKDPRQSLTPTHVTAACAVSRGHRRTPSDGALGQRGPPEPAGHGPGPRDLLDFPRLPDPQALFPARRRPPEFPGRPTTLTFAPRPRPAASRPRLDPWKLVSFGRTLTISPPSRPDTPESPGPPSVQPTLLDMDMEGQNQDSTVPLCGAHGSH

| Compound | %-inhibition of NPM1-ALK [1] [%] | %-inhibition of TAK1-TAB1 [1] [%] | %-inhibition of EML4-ALK ([1]; 1 µM) [%] | %-inhibition of LYNb ([1]; 1 µM) [%] | %-inhibition of PKCβ2 ([1]; 1 µM) [%] | %-inhibition of SRM ([1]; 1 µM) [%] | %-inhibition of PKCβ1 ([2]; kinase PKCβ1, 1 μM) [%] | %-inhibition of PGK ([4]; kinase PGK, 1 μM) [%] | %-inhibition of MLK2 ([5]; kinase MLK2, 1 μM) [%] | %-inhibition of EGFR(d746-750) [1, 7] [%] | %-inhibition of EGFR(d746-750/T790M) [1, 8] [%] | %-inhibition of EML4-ALK [1, 9] [%] | %-inhibition of LYNb ([1]; kinase LYNb, compound at 1 μM) [%] | %-inhibition of NPM1-ALK ([1]; kinase NPM1-ALK, 1 μM) [%] | %-inhibition of PKCβ2 ([1]; kinase PKCβ2, 1 μM) [%] | %-inhibition of SRM ([1]; kinase SRM, 1 μM) [%] | %-inhibition of TAK1-TAB1 ([1]; kinase TAK1-TAB1, 1 μM) [%] | %-inhibition of EPHB1 ([6]; kinase EPHB1, compound at 1 μM) [%] | %-inhibition of RSK3 ([3]; kinase RSK3, 1 μM) [%] | %-inhibition of PGK ([4]; 1 µM) [%] | other results |
| --- | --- | --- | --- | --- | --- | --- | --- | --- | --- | --- | --- | --- | --- | --- | --- | --- | --- | --- | --- | --- | --- |
| COc1cc(Nc2c(C#N)cnc3cc(OCCCN4CCN(C)CC4)c(OC)cc23)c(Cl)cc1Cl [bosutinib] | 66 | 83 | 54 | 94 | 22 | 58 | 3.68 | -3.22 | 58 | – | – | – | – | – | – | – | – | – | – | – | %-inhibition of EGFR(d746-750) ([1]; 1 µM): 100%; %-inhibition of EGFR(d746-750/T790M) ([1]; 1 µM): 92%; %-inhibition of RSK3 ([3]; 1 µM): 67% |
| COc1cc2nccc(Oc3ccc(NC(=O)C4(C(=O)Nc5ccc(F)cc5)CC4)cc3)c2cc1OC [cabozantinib] | – | – | – | – | – | – | 1.48 | -3 | 6.67 | 51 | 43 | 17 | 97 | 10 | -0.178 | 99 | 4.37 | 95 | 0.355 | – | – |
| C[C@@H](Oc1cc(-c2cnn(C3CCNCC3)c2)cnc1N)c1c(Cl)ccc(F)c1Cl [crizotinib] | – | 5 | – | 34 | -1.6 | 1.51 | -3 | -2.6 | 4.7 | – | – | – | – | – | – | – | – | 93 | 3.34 | – | %-inhibition of EGFR(d746-750) ([1]; 1 µM): 2%; %-inhibition of EGFR(d746-750/T790M) ([1]; 1 µM): 8% |
| CC(C)(C)c1nc(-c2cccc(NS(=O)(=O)c3c(F)cccc3F)c2F)c(-c2ccnc(N)n2)s1 [dabrafenib] | – | – | – | – | – | – | – | – | 47 | -1.84 | 6.41 | -1.11 | 86 | -3 | -3 | 100 | 14 | 12 | – | – | – |
| C#Cc1cccc(Nc2ncnc3cc(OCCOC)c(OCCOC)cc23)c1 [erlotinib] | 19 | 5 | 26 | 60 | 6 | 11 | – | – | – | – | – | – | – | – | – | – | – | – | – | 1.68 | %-inhibition of EPHB1 ([6]; 1 µM): 22%; %-inhibition of PKCβ1 ([2]; 1 µM): 6%; %-inhibition of RSK3 ([3]; 1 µM): 9%; %-inhibition of MLK2 ([5]; 1 µM): -1.75% |
| CO[C@H]1C[C@@H]2CC[C@@H](C)[C@@](O)(O2)C(=O)C(=O)N2CCCC[C@H]2C(=O)O[C@H]([C@H](C)C[C@@H]2CC[C@@H](OCCO)[C@H](OC)C2)CC(=O)[C@H](C)/C=C(\C)[C@@H](O)[C@@H](OC)C(=O)[C@H](C)C[C@H](C)/C=C/C=C/C=C/1C [everolimus] | – | – | – | – | – | – | 29 | -6.44 | 4 | -4 | -5 | -3.62 | -1.66 | -5.62 | -9 | 0.151 | 1.54 | -0.233 | -9 | – | – |
| O=S(=O)(c1cccc2cnccc12)N1CCCNCC1 [fasudil] | – | – | – | – | – | – | 16 | 44 | -10 | – | – | – | – | – | – | – | – | -7 | – | – | – |
| CS(=O)(=O)CCNCc1ccc(-c2ccc3ncnc(Nc4ccc(OCc5cccc(F)c5)c(Cl)c4)c3c2)o1 [lapatinib] | -3.28 | – | – | 7 | -6 | 13 | -6 | – | 1.78 | – | – | – | – | – | – | – | – | – | 5.43 | -1 | %-inhibition of EPHB1 ([6]; 1 µM): -0.743% |
| Cc1cn(-c2cc(NC(=O)c3ccc(C)c(Nc4nccc(-c5cccnc5)n4)c3)cc(C(F)(F)F)c2)cn1 [nilotinib] | -64 | 5 | -12 | 85 | 1.66 | 27 | 3.41 | – | -1.7 | – | – | – | – | – | – | – | – | 72 | 11 | -13 | – |
| Cc1ccc(C(=O)Nc2ccc(CN3CCN(C)CC3)c(C(F)(F)F)c2)cc1C#Cc1cnc2cccnn12 [ponatinib] | – | – | – | – | – | – | -5.61 | -0.866 | 39 | – | – | – | – | – | – | – | – | – | 62 | – | – |
